Results: PMC4180753, “Evaluation of Inhibitory Action of Novel Non β-Lactam Inhibitor against Klebsiella pneumoniae Carbapenemase (KPC-2)” (PLoS ONE, 2014)
In brackets after ≈: the same amount, converted by molar mass. Like-named read-outs stand apart in the source and are kept apart here.

What was measured:
[1] = molecular target: T1, KPC-2 (Klebsiella pneumoniae, UniProt Q9F663); assay: IC50 and Ki on purified KPC-2 (nitrocefin hydrolysis); type: biochemical; set-up: inferred from Ni-NTA purification and the pQE-2 vector) (N); made in house; host or cells: E. coli BL21 (DE3); conditions: for IC50: IC50, 1 nM purified KPC-2, 5 minutes pre-incubation, 30°C, pH 7.0, nitrocefin substrate (so in the source)
Experimental: The 50% inhibitory concentration (IC50) was defined as the concentration of the inhibitor that inhibited hydrolytic activity of the enzyme by 50%.
The inhibition constant, Ki, was calculated from the IC50 value by applying the Cheng-Prusoff correction

[2] = test system: E. coli BL21 (Null plasmid); assay: microbe, parasite or virus in culture; type: cell-based; conditions: Escherichia coli, inhibitors at fixed concentration of 4 µg/ml
Experimental: (§1) The Minimum Inhibitory Concentrations (MIC) of recombinant BL21(DE3) cells harboring bla KPC-2 gene were determined by micro dilution method for different carbapenems alone and in combination with inhibitors (Clavulanic acid, Sulbactam, Tazobactam, ZINC01807204 and ZINC02318494) against BL21 control cells (cells with null vector). The recombinant E. coli cells were induced with IPTG prior to performing experiments. The antimicrobial agents, imipenem, meropenem, ertapenem, clavulanic acid, sulbactam and tazobactam were obtained from Sigma Aldrich (USA) and compounds ZINC01807204 and ZINC02318494 were procured from Vitas M (Netherlands). The inhibitors were taken at a fixed concentration of 4 µg/ml.

[3] = test system: E. coli BL21 transformed with recombinant bla KPC-2 (pQE2-KPC-2); assay: microbe, parasite or virus in culture; type: cell-based, Escherichia coli; conditions: for MIC of the carbapenem in combination with screened inhibitors (ZINC01807204 and ZINC02318494) / MIC: BL21 (pQE2-KPC-2); for MIC of the carbapenem in combination with screened inhibitors (ZINC01807204 and ZINC02318494) / reduction in MIC of the carbapenem in combination with screened compounds (ZINC01807204 and ZINC02318494): inhibitors 4 µg/ml; for MIC: inhibitors at fixed concentration of 4 µg/ml; for reduction in MIC of the carbapenem in combination with screened compounds (ZINC01807204 and ZINC02318494): KPC-2 expressing BL21 cells
Experimental: A carbapenem resistant clinical strain of K. pneumoniae (NP6), previously characterised in our lab was procured from Jawaharlal Nehru Medical College (JNMC), Aligarh. […] Escherichia coli (DH5α) and E. coli BL21 (DE3) were used for cloning and protein expression experiments respectively. Minimum inhibitory concentration (MIC) and Confocal Laser Scanning Microscopy (CLSM) experiments were conducted on E.coli (BL21) cells expressing recombinant KPC-2 β-lactamase.
as §1

[4] = test system: Klebsiella pneumoniae MTCC 432; assay: MIC, susceptible MTCC strain; type: cell-based
[5] = test system: Klebsiella pneumoniae NP6 (clinical strain, KPC-2); assay: microbe, parasite or virus in culture; type: cell-based
[6] = test system: E. coli BL21 transformants harbouring bla KPC-2; assay: CLSM Live/Dead cell staining (PI/SYTO 9); type: cell-based, Escherichia coli; conditions: 4 hours
Experimental: The control was taken without any drug. The media was inoculated and incubated at 37^οC for 4 hours. The media was removed and dishes were gently washed with MOPS (pH 7.0) to wash off extra media. Cells were then stained with propidium iodide (PI) and SYTO 9 (1∶1) for one hour. The fluorescence emission was observed using confocal scanning laser microscope FluoView FV1000 (Olympus, Tokyo, Japan). The optimal excitation wavelengths were […] and the optimal emission wavelengths were 500 and 610 nm, respectively. The images were obtained from atleast three randomly picked positions. The images of the control and in presence of known as well as novel inhibitors were averaged and compared.

[7] = Solubility observed in the inhibition assay; type: physicochemical; conditions: at higher concentrations; reason IC50 and Ki could not be determined
[8] = molecular target: T1, KPC-2; conditions: nitrocefin as reporter substrate of KPC-2
[9] = MTCC432, MTCC 432, inhibitors at fixed concentration of 4µg/ml, read-out: MIC
[10] = sub-MIC meropenem in combination with the inhibitor (4 µg/ml)

T1 sequence (Q9F663 25-293 limits assumed): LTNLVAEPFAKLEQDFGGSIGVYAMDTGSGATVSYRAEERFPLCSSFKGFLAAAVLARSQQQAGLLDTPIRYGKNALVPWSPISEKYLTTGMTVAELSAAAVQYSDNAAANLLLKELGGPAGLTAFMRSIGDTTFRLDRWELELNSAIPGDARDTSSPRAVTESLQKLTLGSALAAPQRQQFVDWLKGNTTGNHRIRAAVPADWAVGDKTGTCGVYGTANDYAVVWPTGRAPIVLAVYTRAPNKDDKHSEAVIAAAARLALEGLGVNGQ

O=C(O)[C@H]1/C(=C/CO)O[C@@H]2CC(=O)N21 [Clavulanic acid]
Ki [1]: 30 µM
IC50 [1]: 137 µM

C[C@@H](O)[C@H]1C(=O)N2C(C(=O)O)=C(S[C@@H]3CN[C@H](C(=O)Nc4cccc(C(=O)O)c4)C3)[C@H](C)[C@H]12 [Ertapenem, ertapenem]
MIC [2]: 0.25 µg/mL
MIC of the carbapenem in combination with screened inhibitors (ZINC01807204 and ZINC02318494) [3]: 16 µg/mL
MIC [3]: ≥128 µg/mL
MIC ([3]; Escherichia coli): 128 µg/mL
reduction in MIC of the carbapenem in combination with screened compounds (ZINC01807204 and ZINC02318494) [3]: 8 fold
MIC [4, 9]: 0.0625 µg/mL (≈ 0.131 µM)
MIC [5]: ≥ 256 µg/mL

C[C@@H](O)[C@H]1C(=O)N2C(C(=O)O)=C(SCCN=CN)C[C@H]12 [Imipenem, imipenem]
MIC [2]: 0.25 µg/mL
MIC of the carbapenem in combination with screened inhibitors (ZINC01807204 and ZINC02318494) [3]: 16 µg/mL
MIC [3]: ≥64 µg/mL
MIC ([3]; Escherichia coli): 64 µg/mL
reduction in MIC of the carbapenem in combination with screened compounds (ZINC01807204 and ZINC02318494) [3]: four fold
MIC [4, 9]: 0.0625 µg/mL (≈ 0.209 µM)
MIC [5]: ≥ 256 µg/mL

C[C@@H](O)[C@H]1C(=O)N2C(C(=O)O)=C(S[C@@H]3CN[C@H](C(=O)N(C)C)C3)[C@H](C)[C@H]12 [Meropenem, meropenem]
MIC [2]: 0.125 µg/mL
MIC of the carbapenem in combination with screened inhibitors (ZINC01807204 and ZINC02318494) [3]: 8 µg/mL
MIC [3]: ≥64 µg/mL
MIC ([3]; Escherichia coli): 64 µg/mL
reduction in MIC of the carbapenem in combination with screened compounds (ZINC01807204 and ZINC02318494) [3]: 8 fold and eight fold
MIC ([4]; MTCC432): 0.125 µg/mL (≈ 0.326 µM)
MIC [5]: ≥ 256 µg/mL
cells green with normal cell membranes ([6]; sub-MIC concentration of meropenem alone): 60–70%

CC1(C)[C@H](C(=O)O)N2C(=O)C[C@H]2S1(=O)=O [Sulbactam]
Ki [1]: 23.2 µM
IC50 [1]: 106 µM

C[C@]1(Cn2ccnn2)[C@H](C(=O)O)N2C(=O)C[C@H]2S1(=O)=O [Tazobactam]
cells green with normal cell membranes [6, 10]: 60–70%
Ki [1]: 21.6 µM
IC50 [1]: 98.8 µM

CC(=O)Nc1ccc(S(=O)(=O)Nc2ccccc2NS(=O)(=O)c2ccc(NC(C)=O)cc2)cc1 [ZINC01807204]
cells binding PI and Syto 9 (yellowish orange, affected) [6, 10]: 90–95%
Ki [1]: 43.8 µM
IC50 [1]: 200 µM

CC(C)[C@H](NS(=O)(=O)c1ccc2c(c1)Cc1cc(S(=O)(=O)N[C@H](C(=O)O)C(C)C)ccc1-2)C(=O)O [ZINC02318494]
solubility [7]: poor solubility at higher concentrations
cells binding PI and Syto 9 (yellowish orange, affected) [6, 10]: 90–95%

O=C(Cc1cccs1)N[C@@H]1C(=O)N2C(C(=O)O)=C(/C=C/c3ccc([N+](=O)[O-])cc3[N+](=O)[O-])CS[C@H]12 [nitrocefin]
Km [8]: 28 ± 6 µM
